Test results as given in US20230293630A1, “Coronavirus T Cell Epitopes and Uses Thereof” (priority 2020, published 2023).
Several values for one entry are separate records, joined by “and”; a condition that tells them apart may be missing. Equal values may be shown once. Read-outs that look alike come from different tables or passages of the source.

Legend:
human T cells = test: T cell cytokine SFC response to cross-reactive CD4 epitopes (Tables 6-8); assay type: cell-based; settings: for Total SFC: cross-reactive CD4 non-spike SARS-CoV-2 epitopes, all cytokines; for IFNg / IL5 / IL13: cross-reactive CD4 non-spike epitopes; for IFNg: IFNg spot forming cells; for IL5: IL5 spot forming cells; for IL13: IL13 spot forming cells
[1] = test system: SARS-CoV-2-specific CD8+ T cells (CD69+CD137+) in PBMC; assay type: cell-based, human
[2] = test system: SARS-CoV-2-specific CD4+ T cells (OX40+CD137+) in PBMC; assay type: cell-based, human
[3] = CD4+ T cell epitopes identified by AIM assay, share of donors responding
[4] = CD4+ T cell epitopes identified by AIM assay, sum of response per responding donor
[5] = CD4+ T cell epitopes identified by AIM assay, total response
[6] = CD4+ T cell epitopes identified by AIM assay, percent of tested donors responding
[7] = CD4+ T cell epitopes identified by AIM assay, total response summed over donors

Substance: 248 (PSGTWLTYTGAIKLD) [compound 248]
- Total SFC (human T cells): 1227 SFC
- IFNg (human T cells): 947
- IL5 (human T cells): 0
- IL13 (human T cells): 0

Substance: 246 (DAALALLLLDRLNQL) [compound 246]
- Total SFC (human T cells): 3813 SFC
- IFNg (human T cells): 3520
- IL5 (human T cells): 0
- IL13 (human T cells): 0

Substance: EILPVSMTK
- Frequency of positive response [1]: 25 and 50

Substance: 820 (EEIAIILASFSASTS) [compound 820]
- Total SFC (human T cells): 13813 SFC
- IFNg (human T cells): 7773
- IL5 (human T cells): 1587
- IL13 (human T cells): 1507

Substance: EPVLKGVKL
- Frequency of positive response [1]: 20
- Magnitude of response [1]: 313
- Sum of response [1]: 313

Substance: 848 (VKHVYQLRARSVSPK) [compound 848]
- Total SFC (human T cells): 3640 SFC
- IFNg (human T cells): 2947
- IL5 (human T cells): 227
- IL13 (human T cells): 0

Substance: 849 (LYSPIFLIVAAIVFI) [compound 849]
- Total SFC (human T cells): 520 SFC
- IFNg (human T cells): 400
- IL5 (human T cells): 0
- IL13 (human T cells): 0

Substance: 846 (YIINLIIKNLSKSLT) [compound 846]
- Total SFC (human T cells): 1393 SFC
- IFNg (human T cells): 1283
- IL5 (human T cells): 0
- IL13 (human T cells): 0

Substance: VTYVPAQEK
- Frequency of positive response [1]: 33 and 25
- Magnitude of response [1]: 435 and 235
- Sum of response [1]: 435 and 235

Substance: KTFPPTEPKKDKKK
- Frequency of positive response [1]: 50
- Magnitude of response [1]: 122
- Sum of response [1]: 122

Substance: 247 (LLLLDRLNQLESKMS) [compound 247]
- Total SFC (human T cells): 1053 SFC
- IFNg (human T cells): 1053
- IL5 (human T cells): 0
- IL13 (human T cells): 0

Substance: KAYNVTQAF
- Frequency of positive response [1]: 50 and 33

Substance: 807 (LAILTALRLCAYCCN) [compound 807]
- Total SFC (human T cells): 1800 SFC
- IFNg (human T cells): 1760
- IL5 (human T cells): 0
- IL13 (human T cells): 0

Substance: AISDYDYYR
- Frequency of positive response [1]: 100
- Magnitude of response [1]: 173
- Sum of response [1]: 173

Substance: SEPVLKGVKL
- Frequency of positive response [1]: 40
- Magnitude of response [1]: 251
- Sum of response [1]: 501

Substance: YKTFPPTEPK
- Frequency of positive response [1]: 50
- Magnitude of response [1]: 139
- Sum of response [1]: 139

Substance: YQDVNCTEV
- Frequency of positive response [1]: 50
- Magnitude of response [1]: 243
- Sum of response [1]: 243

Substance: AAISDYDYYR
- Frequency of positive response [1]: 100
- Magnitude of response [1]: 290
- Sum of response [1]: 290

Substance: RLQSLQTY
- Frequency of positive response [1]: 33
- Magnitude of response [1]: 142
- Sum of response [1]: 142

Substance: 847 (MKIILFLALITLATC) [compound 847]
- Total SFC (human T cells): 373 SFC
- IFNg (human T cells): 293
- IL5 (human T cells): 0
- IL13 (human T cells): 0

Substance: 806 (SEETGTLIVNSVLLF) [compound 806]
- Total SFC (human T cells): 267 SFC
- IFNg (human T cells): 267
- IL5 (human T cells): 0
- IL13 (human T cells): 0

Substance: HTTDPSFLGR
- Frequency of positive response [1]: 50
- Magnitude of response [1]: 312
- Sum of response [1]: 312

Substance: RYLALYNKYKYFSGA
- Frequency of response (%) [2, 3]: 15%
- Magnitude by # of responding donors [2, 4]: 708
- Sum of response [2, 5]: 1415

Substance: LQPELDSFKEELDKY
- Frequency of response (%) [2, 3]: 7%
- Magnitude by # of responding donors [2, 4]: 173
- Sum of response [2, 5]: 173

Substance: YPKCDRAMPNMLRIM
- Frequency of response (%) [2, 3]: 7%
- Magnitude by # of responding donors [2, 4]: 153
- Sum of response [2, 5]: 153

Substance: FLCWHTNCYDYCIPY
- Frequency of response (%) [2, 3]: 7%
- Magnitude by # of responding donors [2, 4]: 209
- Sum of response [2, 5]: 209

Substance: SELVIGAVILRGHLR
- Frequency of response (%) [2]: 33%
- Magnitude by # of responding donors [2]: 141
- Sum of response [2]: 563

Substance: 245 (DDQIGYYRRATRRIR) [compound 245]
- Total SFC (human T cells): 787 SFC
- IFNg (human T cells): 400
- IL5 (human T cells): 0
- IL13 (human T cells): 120

Substance: SNFRVQPTESIVRFP
- Frequency of response (%) [2, 6]: 9%
- Magnitude by # of responding donors [2, 4]: 243
- Sum of response [2, 7]: 243

Substance: AYSNNSIAIPTNFTI
- Frequency of response (%) [2, 6]: 8%
- Magnitude by # of responding donors [2, 4]: 112
- Sum of response [2, 7]: 112

Substance: NKDGIIWVATEGALN
- Frequency of response (%) [2, 3]: 29%
- Magnitude by # of responding donors [2, 4]: 437
- Sum of response [2, 5]: 1747

Substance: QYGDCLGDIAARDLI
- Frequency of response (%) [2, 3]: 8%
- Magnitude by # of responding donors [2, 4]: 152
- Sum of response [2, 5]: 152

Substance: IAGHHLGRCDIKDLP
- Frequency of response (%) [2, 3]: 25%
- Magnitude by # of responding donors [2, 4]: 522
- Sum of response [2, 5]: 1565

Substance: NVLFSTVFPPTSFGP
- Frequency of response (%) [2, 3]: 7%
- Magnitude by # of responding donors [2, 4]: 109
- Sum of response [2, 5]: 109

Substance: SHRFYRLANECAQVL
- Frequency of response (%) [2, 3]: 6%
- Magnitude by # of responding donors [2, 4]: 535
- Sum of response [2, 5]: 535

Substance: AENSVAYSNNSIAIP
- Frequency of response (%) [2, 3]: 17%
- Magnitude by # of responding donors [2, 4]: 403
- Sum of response [2, 5]: 805

Substance: NLLLQYGSFCTQLNR
- Frequency of response (%) [2, 6]: 31%
- Magnitude by # of responding donors [2, 4]: 1140
- Sum of response [2, 7]: 4560

Substance: YYRRATRRIRGGDGK
- Frequency of response (%) [2, 3]: 23%
- Magnitude by # of responding donors [2, 4]: 197
- Sum of response [2, 5]: 592

Substance: KTDGTLMIERFVSLA
- Frequency of response (%) [2, 3]: 7%
- Magnitude by # of responding donors [2, 4]: 150
- Sum of response [2, 5]: 150

Substance: IATNGPLKVGGSCVL
- Frequency of response (%) [2, 3]: 8%
- Magnitude by # of responding donors [2, 4]: 112
- Sum of response [2, 5]: 112

Substance: TFKCYGVSPTKLNDL
- Frequency of response (%) [2, 3]: 8%
- Magnitude by # of responding donors [2, 4]: 221
- Sum of response [2, 5]: 221

Substance: ALLAVFQSASKIITL [SEQ ID NO 249]
- Frequency of response (%) [2, 3]: 9%
- Magnitude by # of responding donors [2, 4]: 178
- Sum of response [2, 5]: 178

Substance: SFLAHIQWMVMFTPL
- Frequency of response (%) [2, 3]: 8%
- Magnitude by # of responding donors [2, 4]: 554
- Sum of response [2, 5]: 554

Substance: HTTDPSFLGRYMSAL
- Frequency of response (%) [2, 3]: 18%
- Magnitude by # of responding donors [2, 4]: 2461
- Sum of response [2, 5]: 4921

Substance: QDALFAYTKRNVIPT
- Frequency of response (%) [2, 3]: 6%
- Magnitude by # of responding donors [2, 4]: 132
- Sum of response [2, 5]: 132

Substance: GYKKPASRELKVTFF
- Frequency of response (%) [2, 3]: 15%
- Magnitude by # of responding donors [2, 4]: 246
- Sum of response [2, 5]: 491

Substance: EHVTFFIYNKIVDEP
- Frequency of response (%) [2, 3]: 14%
- Magnitude by # of responding donors [2, 4]: 139
- Sum of response [2, 5]: 277

Substance: NRNRFLYIIKLIFLW
- Frequency of response (%) [2, 3]: 13%
- Magnitude by # of responding donors [2, 4]: 210
- Sum of response [2, 5]: 420

Substance: KNPLLYDANYFLCWH [SEQ ID NO 253]
- Frequency of response (%) [2, 6]: 7%
- Magnitude by # of responding donors [2, 4]: 112
- Sum of response [2, 7]: 112
